From patent US11976066B1 (priority 2023, dated 2024)
Converted amounts (≈) assume the structure as drawn.

What follows are compounds tested on multidrug-resistant (MDR) strains of Mycobacterium tuberculosis (assay: microbe, parasite or virus in culture). Details: 192 h, read-out: MIC MDR-TB, MDR strains, REMA, 8 days incubation at 37° C, Middlebrook 7H9 broth.
Format: cell-based

Compound | MIC
CCOC(=O)c1cc(C(=O)c2ccc(F)cc2)n2ccc(N)cc12 [Compound 3a, Ethyl 7-amino-3-(4-fluorobenzoyl)indolizine-1-carboxylate] | 32 µg/mL (≈ 98.1 µM)
CCOC(=O)c1cc(C(=O)c2ccccc2[N+](=O)[O-])n2ccc(N)cc12 [Compound 3b, Ethyl 7-amino-3-(2-nitrobenzoyl)indolizine-1-carboxylate] | ~16 µg/mL (≈ 45.3 µM)
COC(=O)c1c(C(=O)OC)c2cc(N)ccn2c1C(=O)c1ccc(OC)cc1 [Compound 3d, Dimethyl 7-amino-3-(4-methoxybenzoyl)indolizine-1,2-dicarboxylate] | ~32 µg/mL (≈ 83.7 µM)
CCOC(=O)c1cc(C(=O)c2ccc(Br)cc2)n2ccc(N)cc12 [Compound 3e, Ethyl 7-amino-3-(4-bromobenzoyl)indolizine-1-carboxylate] | ~64 µg/mL (≈ 165 µM)
